Measured values taken from the supplement of paper PMC5908809.

Legend:
[1] = test system: normal NK cells expanded with K562-aAPC; assay: percent inhibition of viability; higher = more inhibition; conditions: 72 h, IL-2 2.5 ng/mL
Method: (§1)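 Drug sensitivity and resistance testing on K562-aAPC-expanded normal NK cells: 5 concentrations (10-fold steps over a 10,000-fold range), 72 h at 37 °C, viability by CellTiter-Glo normalised to DMSO and benzethonium chloride controls; DSS from the fitted curve.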

[2] = test system: DERL-7 (IL-2 2.5 ng/mL); assay: as above; conditions: 72 h
[3] = test system: IMC-1 (IL-2 20 ng/mL); assay: as above; conditions: 72 h
[4] = test system: KAI3 (IL-2 2.5 ng/mL); assay: as above; conditions: 72 h
[5] = test system: KHYG-1 (IL-2 2.5 ng/mL); assay: as above; conditions: 72 h
[6] = test system: NK-92 (IL-2 2.5 ng/mL); assay: as above; conditions: 72 h
[7] = test system: NK-YS (IL-2 2.5 ng/mL); assay: as above; conditions: 72 h
[8] = test system: NKL (IL-2 2.5 ng/mL); assay: as above; conditions: 72 h
[9] = test system: SNK-6 (IL-2 2.5 ng/mL); assay: as above; conditions: 72 h
[10] = test system: YT (IL-2 2.5 ng/mL); assay: as above; conditions: 72 h
[11] = test system: normal primary NK cells, pool 1 (3 donors) (IL-2 2.5 ng/mL); assay: as above; conditions: 72 h
[12] = test system: normal primary NK cells, pool 1 (3 donors), resting (IL-2 0 ng/mL); assay: as above; conditions: 72 h
[13] = test system: normal primary NK cells, pool 2 (3 donors) (IL-2 2.5 ng/mL); assay: as above; conditions: 72 h
[14] = test system: normal primary NK cells, pool 3 (3 donors) (IL-2 2.5 ng/mL); assay: as above; conditions: 72 h
[15] = test system: normal NK cells expanded with K562-aAPC; assay: drug sensitivity score (DSS) (DSS units); higher = more sensitive; extreme values may be limits of the assay; conditions: 72 h; IL-2 2.5 ng/mL
Method: as §1

[16] = test system: DERL-7 (IL-2 2.5 ng/mL); assay: as above; conditions: 72 h
[17] = test system: IMC-1 (IL-2 20 ng/mL); assay: as above; conditions: 72 h
[18] = test system: KAI3 (IL-2 2.5 ng/mL); assay: as above; conditions: 72 h
[19] = test system: KHYG-1 (IL-2 2.5 ng/mL); assay: as above; conditions: 72 h
[20] = test system: NK-92 (IL-2 2.5 ng/mL); assay: as above; conditions: 72 h
[21] = test system: NK-YS (IL-2 2.5 ng/mL); assay: as above; conditions: 72 h
[22] = test system: NKL (IL-2 2.5 ng/mL); assay: as above; conditions: 72 h
[23] = test system: SNK-6 (IL-2 2.5 ng/mL); assay: as above; conditions: 72 h
[24] = test system: YT (IL-2 2.5 ng/mL); assay: as above; conditions: 72 h
[25] = test system: normal primary NK cells, pool 1 (3 donors) (IL-2 2.5 ng/mL); assay: as above; conditions: 72 h
[26] = test system: normal primary NK cells, pool 1 (3 donors), resting (IL-2 0 ng/mL); assay: as above; conditions: 72 h
[27] = test system: normal primary NK cells, pool 2 (3 donors) (IL-2 2.5 ng/mL); assay: as above; conditions: 72 h
[28] = test system: normal primary NK cells, pool 3 (3 donors) (IL-2 2.5 ng/mL); assay: as above; conditions: 72 h

Structure (SMILES): Cc1cccc(-c2nn3c(c2-c2ccnc4ccc(C(N)=O)cc24)CCC3)n1 [Galunisertib] (max concentration tested 1000 nM)
- percent inhibition of viability ([1]; 0.1 nM): -0.13%
- percent inhibition of viability ([1]; 1 nM): -4.95%
- percent inhibition of viability ([1]; 10 nM): -1.88%
- percent inhibition of viability ([1]; 100 nM): -4.21%
- percent inhibition of viability ([1]; 1000 nM): -16.8%
- percent inhibition of viability ([2]; 0.1 nM): 5.62%
- percent inhibition of viability ([2]; 1 nM): 1.68%
- percent inhibition of viability ([2]; 10 nM): 4.85%
- percent inhibition of viability ([2]; 100 nM): -1.77%
- percent inhibition of viability ([2]; 1000 nM): 1.92%
- percent inhibition of viability ([3]; 0.1 nM): -7.13%
- percent inhibition of viability ([3]; 1 nM): -0.55%
- percent inhibition of viability ([3]; 10 nM): -5.27%
- percent inhibition of viability ([3]; 100 nM): -8.99%
- percent inhibition of viability ([3]; 1000 nM): -4.14%
- percent inhibition of viability ([4]; 0.1 nM): -4.52%
- percent inhibition of viability ([4]; 1 nM): 0.48%
- percent inhibition of viability ([4]; 10 nM): -2.74%
- percent inhibition of viability ([4]; 100 nM): -1.09%
- percent inhibition of viability ([4]; 1000 nM): -2.65%
- percent inhibition of viability ([5]; 0.1 nM): -4.42%
- percent inhibition of viability ([5]; 1 nM): -0.98%
- percent inhibition of viability ([5]; 10 nM): -7.17%
- percent inhibition of viability ([5]; 100 nM): 0.3%
- percent inhibition of viability ([5]; 1000 nM): -1.95%
- percent inhibition of viability ([6]; 0.1 nM): 6.42%
- percent inhibition of viability ([6]; 1 nM): -19.6%
- percent inhibition of viability ([6]; 10 nM): -7%
- percent inhibition of viability ([6]; 100 nM): -11.1%
- percent inhibition of viability ([6]; 1000 nM): -5.09%
- percent inhibition of viability ([7]; 0.1 nM): -4.82%
- percent inhibition of viability ([7]; 1 nM): -4.05%
- percent inhibition of viability ([7]; 10 nM): -5.75%
- percent inhibition of viability ([7]; 100 nM): -3.29%
- percent inhibition of viability ([7]; 1000 nM): -5.06%
- percent inhibition of viability ([8]; 0.1 nM): -14.8%
- percent inhibition of viability ([8]; 1 nM): -16.4%
- percent inhibition of viability ([8]; 10 nM): -19.5%
- percent inhibition of viability ([8]; 100 nM): -16.8%
- percent inhibition of viability ([8]; 1000 nM): -23.6%
- percent inhibition of viability ([9]; 0.1 nM): 4.83%
- percent inhibition of viability ([9]; 1 nM): 20.7%
- percent inhibition of viability ([9]; 10 nM): 0%
- percent inhibition of viability ([9]; 100 nM): -0.11%
- percent inhibition of viability ([9]; 1000 nM): -19.9%
- percent inhibition of viability ([10]; 0.1 nM): -3.06%
- percent inhibition of viability ([10]; 1 nM): -2.63%
- percent inhibition of viability ([10]; 10 nM): -3.58%
- percent inhibition of viability ([10]; 100 nM): 1.78%
- percent inhibition of viability ([10]; 1000 nM): 1.58%
- percent inhibition of viability ([11]; 0.1 nM): 0.38%
- percent inhibition of viability ([11]; 1 nM): -7.01%
- percent inhibition of viability ([11]; 10 nM): -9.1%
- percent inhibition of viability ([11]; 100 nM): -2.92%
- percent inhibition of viability ([11]; 1000 nM): -15.2%
- percent inhibition of viability ([12]; 0.1 nM): -3.02%
- percent inhibition of viability ([12]; 1 nM): -1.34%
- percent inhibition of viability ([12]; 10 nM): -8.83%
- percent inhibition of viability ([12]; 100 nM): 11.9%
- percent inhibition of viability ([12]; 1000 nM): 15%
- percent inhibition of viability ([13]; 0.1 nM): -8.56%
- percent inhibition of viability ([13]; 1 nM): -7.94%
- percent inhibition of viability ([13]; 10 nM): -11.5%
- percent inhibition of viability ([13]; 100 nM): -15%
- percent inhibition of viability ([13]; 1000 nM): -20.2%
- percent inhibition of viability ([14]; 0.1 nM): -11%
- percent inhibition of viability ([14]; 1 nM): -5.65%
- percent inhibition of viability ([14]; 10 nM): -10%
- percent inhibition of viability ([14]; 100 nM): -14.2%
- percent inhibition of viability ([14]; 1000 nM): -19.7%
- drug sensitivity score [15]: 0
- drug sensitivity score [16]: 0
- drug sensitivity score [17]: 0
- drug sensitivity score [18]: 0
- drug sensitivity score [19]: 0
- drug sensitivity score [20]: 0
- drug sensitivity score [21]: 0
- drug sensitivity score [22]: 0
- drug sensitivity score [23]: 0
- drug sensitivity score [24]: 0
- drug sensitivity score [25]: 0
- drug sensitivity score [26]: 1.02
- drug sensitivity score [27]: 0
- drug sensitivity score [28]: 0

Structure (SMILES): C[C@@H]1CN(CC(=O)Nc2ccc3c(c2)Cc2cccc(-c4cc(=O)cc(N5CCOCC5)o4)c2S3)C[C@H](C)O1 (max concentration tested 25000 nM)
- percent inhibition of viability ([1]; 2.5 nM): -9.26%
- percent inhibition of viability ([1]; 25 nM): -9.66%
- percent inhibition of viability ([1]; 250 nM): -11.6%
- percent inhibition of viability ([1]; 2500 nM): -3.45%
- percent inhibition of viability ([1]; 25000 nM): 56.6%
- percent inhibition of viability ([2]; 2.5 nM): -2%
- percent inhibition of viability ([2]; 25 nM): -3.36%
- percent inhibition of viability ([2]; 250 nM): -4.44%
- percent inhibition of viability ([2]; 2500 nM): 13%
- percent inhibition of viability ([2]; 25000 nM): 85.2%
- percent inhibition of viability ([3]; 2.5 nM): -9.5%
- percent inhibition of viability ([3]; 25 nM): -5.69%
- percent inhibition of viability ([3]; 250 nM): -6.07%
- percent inhibition of viability ([3]; 2500 nM): 2.99%
- percent inhibition of viability ([3]; 25000 nM): 98.3%
- percent inhibition of viability ([4]; 2.5 nM): 5.88%
- percent inhibition of viability ([4]; 25 nM): 0.49%
- percent inhibition of viability ([4]; 250 nM): -7.91%
- percent inhibition of viability ([4]; 2500 nM): 18.6%
- percent inhibition of viability ([4]; 25000 nM): 87.2%
- percent inhibition of viability ([5]; 2.5 nM): -6.23%
- percent inhibition of viability ([5]; 25 nM): -8.72%
- percent inhibition of viability ([5]; 250 nM): -3.2%
- percent inhibition of viability ([5]; 2500 nM): 18.6%
- percent inhibition of viability ([5]; 25000 nM): 107%
- percent inhibition of viability ([6]; 2.5 nM): -7.1%
- percent inhibition of viability ([6]; 25 nM): -15.1%
- percent inhibition of viability ([6]; 250 nM): -2.57%
- percent inhibition of viability ([6]; 2500 nM): 18.6%
- percent inhibition of viability ([6]; 25000 nM): 101%
- percent inhibition of viability ([7]; 2.5 nM): -6.64%
- percent inhibition of viability ([7]; 25 nM): -9%
- percent inhibition of viability ([7]; 250 nM): -7.16%
- percent inhibition of viability ([7]; 2500 nM): 8.32%
- percent inhibition of viability ([7]; 25000 nM): 84.3%
- percent inhibition of viability ([8]; 2.5 nM): -13.9%
- percent inhibition of viability ([8]; 25 nM): -22.8%
- percent inhibition of viability ([8]; 250 nM): -12.4%
- percent inhibition of viability ([8]; 2500 nM): 24.9%
- percent inhibition of viability ([8]; 25000 nM): 71%
- percent inhibition of viability ([9]; 2.5 nM): -10.7%
- percent inhibition of viability ([9]; 25 nM): -10.4%
- percent inhibition of viability ([9]; 250 nM): -8.37%
- percent inhibition of viability ([9]; 2500 nM): 9%
- percent inhibition of viability ([9]; 25000 nM): 100%
- percent inhibition of viability ([10]; 2.5 nM): -6.13%
- percent inhibition of viability ([10]; 25 nM): -5.84%
- percent inhibition of viability ([10]; 250 nM): -0.59%
- percent inhibition of viability ([10]; 2500 nM): 8.43%
- percent inhibition of viability ([10]; 25000 nM): 96.4%
- percent inhibition of viability ([11]; 2.5 nM): -8.95%
- percent inhibition of viability ([11]; 25 nM): -10.4%
- percent inhibition of viability ([11]; 250 nM): -7.4%
- percent inhibition of viability ([11]; 2500 nM): 10%
- percent inhibition of viability ([11]; 25000 nM): 91.3%
- percent inhibition of viability ([12]; 2.5 nM): 10.2%
- percent inhibition of viability ([12]; 25 nM): 6.26%
- percent inhibition of viability ([12]; 250 nM): 7.45%
- percent inhibition of viability ([12]; 2500 nM): 30.7%
- percent inhibition of viability ([12]; 25000 nM): 89%
- percent inhibition of viability ([13]; 2.5 nM): -2.96%
- percent inhibition of viability ([13]; 25 nM): -5.92%
- percent inhibition of viability ([13]; 250 nM): 1.66%
- percent inhibition of viability ([13]; 2500 nM): 7.62%
- percent inhibition of viability ([13]; 25000 nM): 69.8%
- percent inhibition of viability ([14]; 2.5 nM): -1.38%
- percent inhibition of viability ([14]; 25 nM): 0.2%
- percent inhibition of viability ([14]; 250 nM): 6.37%
- percent inhibition of viability ([14]; 2500 nM): -0.76%
- percent inhibition of viability ([14]; 25000 nM): 59.3%
- drug sensitivity score [15]: 2.76
- drug sensitivity score [16]: 6.89
- drug sensitivity score [17]: 5.86
- drug sensitivity score [18]: 7.81
- drug sensitivity score [19]: 8.65
- drug sensitivity score [20]: 8.57
- drug sensitivity score [21]: 6.02
- drug sensitivity score [22]: 7.43
- drug sensitivity score [23]: 6.99
- drug sensitivity score [24]: 6.69
- drug sensitivity score [25]: 6.71
- drug sensitivity score [26]: 8.7
- drug sensitivity score [27]: 5.1
- drug sensitivity score [28]: 3.14
